Data: patent publication US7098243B2, “Bicyclic carbohydrates as antiviral bioactives for the treatment of infections caused by the alphaherpesvirinae HSV-1 and HSV-2” (Kemin Pharma Europe B.V.B.A., priority 2003, dated 2006)
Converted amounts (≈) assume the structure as drawn. “Also recorded” adds a separate entry of the source. Like-named read-outs stand apart in the source and are kept apart here.

Key:
[1] = system: herpes simplex virus type 1 (HSV-1); assay: Cytopathic effect inhibition assay (CPE) against HSV-1 in HFF cells; conditions: for EC50: Human alphaherpesvirus 1, HFF
[2] = system: herpes simplex virus type 2 (HSV-2); assay: Cytopathic effect inhibition assay (CPE) against HSV-2 in HFF cells; conditions: for EC50: Human alphaherpesvirus 2, HFF
[3] = system: varicella zoster virus (VZV); assay: Inhibition of viral-induced cytopathicity, VZV in HFF cells; assay type: cell-based
HFF cells = assay: Toxicity (reduction of cell viability) in the HSV, HCMV and VZV screenings; assay type: cell-based; conditions: reduction of cell viability by 50%
[4] = system: Clostridium perfringens ATCC 13124; assay type: cell-based; conditions: 16 hours at 35° C., Mueller-Hinton broth
Vero cells = conditions: West Nile screening, reduction of cell viability by 50%
E. coli ATCC 25922 = assay: Antibacterial microdilution screening (Bioscreen C), E. coli; assay type: cell-based; conditions: 16 hours at 35° C., Mueller-Hinton broth
[5] = system: Pseudomonas aeruginosa ATCC 27853; assay: Antibacterial microdilution screening (Bioscreen C), P. aeruginosa; assay type: cell-based; conditions: 16 hours at 35° C., Mueller-Hinton broth
West Nile virus = assay: Inhibition of viral-induced cytopathicity, West Nile virus in Vero cells; assay type: cell-based
[6] = system: Cryptococcus neoformans ATCC 90112; assay: Antifungal microdilution screening (Bioscreen C), C. neoformans; assay type: cell-based; conditions: 48 hours at 35° C., RPMI 1640
[7] = system: Staphylococcus aureus ATCC29213; assay: Antibacterial microdilution screening (Bioscreen C), S. aureus; assay type: cell-based; conditions: 16 hours at 35° C., Mueller-Hinton broth
[8] = system: human cytomegalo virus (HCMV); assay: Inhibition of viral-induced cytopathicity, HCMV in HFF cells; assay type: cell-based
[9] = system: Aspergillus fumigatus ATCC 2895; assay: Antifungal microdilution screening (Bioscreen C), A. fumigatus; assay type: cell-based; conditions: 3 days at 30° C., RPMI 1640
[10] = system: Candida albicans ATCC 24433; assay: Antifungal microdilution screening (Bioscreen C), C. albicans; assay type: cell-based; conditions: 24 hours at 35° C., RPMI 1640
[11] = system: Trichophyton mentagrophytes ATCC 9533; assay: Antifungal microdilution screening (Bioscreen C), T. mentagrophytes; assay type: cell-based; conditions: 5 days at 30° C., RPMI 1640
[12] = compounds related to Compound A1 (Table 4)
[13] = viral-induced cytopathicity in HFF cell cultures

CCO[C@@H]1[C@@H](OCC)[C@H](Cc2ccccc2)O[C@@H]2CO[C@@H](c3ccccc3)O[C@@H]12
EC50 ([1]; read-out: EC50 HSV-1): > 80 µg/mL | EC50 ([2]; read-out: EC50 HSV-2): > 80 µg/mL

CO[C@@H]1[C@@H](OC)[C@H](Cc2ccccc2)O[C@@H]2CO[C@@H](c3ccc(Cl)cc3)O[C@@H]12
EC50 ([1]; read-out: EC50 HSV-1): > 16 µg/mL | EC50 ([2]; read-out: EC50 HSV-2): > 16 µg/mL

C=CCO[C@@H]1[C@@H](OCC=C)[C@H](Cc2ccccc2)O[C@@H]2CO[C@@H](c3ccc(Cl)cc3)O[C@@H]12
EC50 HSV-1 [1, 12]: >16 µg/mL | EC50 HSV-2 [2, 12]: >16 µg/mL

Nc1nc2c(ncn2COCCO)c(=O)[nH]1 [ACV, Acyclovir, reference compound]
EC50 ([1]; read-out: ACV EC50): 1.2 µg/mL (≈ 5.33 µM) | EC50 ([2]; read-out: ACV EC50): 0.4 µg/mL (≈ 1.78 µM)

CCO[C@@H]1[C@@H](OCC)[C@H](Cc2ccccc2)O[C@@H]2CO[C@@H](c3ccc(Cl)cc3)O[C@@H]12 [Compound A1]
Compound A1 S.I. (CC50/EC50) [3]: 0 | Compound A1 EC50 [3, 13]: > 100 µg/mL | Compound A1 CC50 (HFF cells; HCMV screening): 71.0 µg/mL | Compound A1 CC50 (HFF cells; HSV-1 screening): >100 µg/mL | Compound A1 CC50 (HFF cells; HSV-2 screening): >100 µg/mL | Compound A1 CC50 (HFF cells; VZV screening): >100 µg/mL | MIC C. perfringens ATCC 13124 [4]: >25 µg/mL | Compound A1 CC50 (Vero cells): 50 µg/mL | Compound A1 S.I. (CC50/EC50) ([1]; HSV-1): >33.3 | Compound A1 EC50 ([1]; HSV-1, viral-induced cytopathicity in HFF cell cultures): 3 µg/mL | Activity against HSV-1 (in words) ([1]; anti-viral screening): strong activity | MIC E. coli ATCC 25922 (E. coli ATCC 25922): >25 µg/mL | MIC P. aeruginosa ATCC 27853 [5]: >25 µg/mL | Compound A1 S.I. (CC50/EC50) (West Nile virus; West Nile): 0 | Compound A1 EC50 (West Nile virus; West Nile virus, Vero cells): > 50 µg/mL | MIC C. neoformans ATCC 90112 [6]: >25 µg/mL | MIC S. aureus ATCC 29213 [7]: >25 µg/mL | Compound A1 S.I. (CC50/EC50) ([2]; HSV-2): >3333 | Compound A1 EC50 ([2]; HSV-2, viral-induced cytopathicity in HFF cell cultures): < 0.03 µg/mL | Activity against HSV-2 (in words) ([2]; anti-viral screening): strong activity; also recorded: superior effect against HSV-2 | Compound A1 S.I. (CC50/EC50) [8]: <3.5 | Compound A1 EC50 [8, 13]: > 20 µg/mL | MIC A. fumigatus ATCC 2895 [9]: >25 µg/mL | MIC C. albicans ATCC 24433 [10]: >25 µg/mL | MIC T. mentagrophytes ATCC 9533 [11]: >25 µg/mL

Nc1nc(O)c2ncn(COC(CO)CO)c2n1 [GCV, ganciclovir, reference compound]
EC50 ([8]; Human betaherpesvirus 5, HFF, reference product, read-out: GCV EC50): 0.8 µg/mL (≈ 3.13 µM)
